Data as given in patent US20040170622A1, “Methods and compositions for modulating XBP-1 activity” (President and Fellows of Harvard College, priority 2002, published 2004).
Where a SMILES comes first, the peptide text is derived from it. The star is where a group is joined. Cbz = O=C(OCc1ccccc1)*

Assays:
UPR target genes = assay: UPR gene and XBP-1 protein expression in MEF cells (gene array, Northern, Western blot); assay type: cell-based, mouse; conditions: for induction of ERdj4 (XBP-1-dependent UPR target gene): XBP-1-deficient MEFs; for XBP-1u and XBP-1s protein induction: wt MEFs, 10 μM MG-132 or 10 μg/ml Tm, 6 hours
Experimental: (A) XBP-1 locus in wild type and XBP-1^−/− MEF cells. Splicing of the mutant XBP-1 mRNA in XBP-1^−/− cells is shown. * represent termination codons. (B) Wild type and XBP-1^−/− MEF cells were untreated or treated with 10 μg/ml Tm for 6 hours. […] (C) Wild type and XBP-1^−/− MEF cells were treated with 10 μM MG-132 or 10 μg/ml Tm for 6 hours. XBP-1u and XBP-1s proteins were detected by Western blot analysis with anti-XBP-1 antibody.
293T and MEF cells derived from wild type and XBP-1^−/− embryos were cultured in DMEM supplemented with 10% fetal calf serum (Hyclone Laboratories). MEF-tet-off cells (Clontech) were maintained in the same media with the addition of 100 μg/ml G418 and 1 μg/ml doxycycline. XBP-1s inducible cells were obtained by transfecting MEF-tet-off cells with the TREhyg-XBP-1s plasmid and then selecting in the presence of 400 μg/ml hygromycin B. Several clones were tested for doxycycline-dependent XBP-1s expression, and one was selected for further experiments. MEF-dn-XBP cells were generated by transfecting MEF-tet-off cells with the TREhyg-dn-XBP plasmid. […] ATF6α and β knockdown MEF cells were generated by cotransfecting wild type MEF cells with U6-iATF6α and β and cmv-puromycin or transducing cells with retroviruses containing each RNAi vector.
Total RNA was isolated from MEF cells with TRIZOL reagent (Invitrogen, Carlsbad, Calif.). cDNA synthesis, hybridization and laser scanning of the array were carried out at the Gene Array Technology Center (Brigham and Women's Hospital, Boston, Mass.) with MG-U74A GeneChips which had 6,000 functionally characterized sequences and 6,000 ESTs from the UniGene database (Affymetrix, Santa Clara, Calif.) as recommended by Affymetrix. Data analysis was performed using Affymetrix GeneChip 3.1 software under default parameter setting.
Total RNA was prepared by using Trizol reagent, electrophoresed on 1.2% agarose, 6% formaldehyde gels and then transferred onto Genescreen Plus membrane (NEN). ^32P-radiolabeled probes were prepared with the RediPrime II labeling system (Amersham-Pharmacia). Template DNAs for the probes were cut out by using appropriate restriction enzymes from the cDNA-containing plasmid (XBP-1, 15-830 of the murine coding region) or EST clones from ATCC (CHOP, IMAGE:5863055; ERdj4, IMAGE: 1920927; p58^IPK probe A, IMAGE:9001935; p58^IPK probe B, IMAGE:2646147; ATF6α, IMAGE:4503659; MGP, IMAGE:4990627; EDEM, IMAGE:5324660; PDI-P5, IMAGE:2645183; RAMP4, IMAGE:3489738). Grp94 and Grp78 probes were kindly provided by R. J. Kaufman, Univ. of Michigan and the HEDJ probe the kind gift of L. Hendershot, St. Jude Children's Research Hospital, Memphis. Probe hybridization was performed with Ultrahyb buffer as recommended by the manufacturer (Ambion).
48 hours after transfection, 293T cells were washed twice with cold PBS and lysed in 1 ml lysis buffer (10 mM Tris pH7.4, 150 mM NaCl, 1% Triton X-100, 1 mM EDTA) containing a protease inhibitor cocktail tablet (Roche). Lysates were precleared by using protein A-agarose beads (Roche) for 1 hour and incubated with agarose conjugated anti-HA antibody (Santa Cruz) for overnight. The agarose beads were washed five times with the lysis buffer and resuspended in SDS-PAGE sample buffer. MEF cells were lysed in RIPA buffer (50 mM Tris pH 7.4, 150 mM NaCl, 1 mM EDTA, 1% Triton X-100, 1% sodium deoxycholate, 0.1% SDS). Lysates and immunoprecipitates were subjected to SDS-PAGE and transferred to Hybond P membrane (Amersham-Pharmacia).

[1] = test system: XBP-1u and XBP-1s proteins; assay: XBP-1u and XBP-1s protein levels in J558 cells (Western blot); assay type: cell-based
Experimental: (A) BiP and CHOP induction was examined by northern blot analysis after treating NIH3T3 or J558 myeloma cells with either MG-132 (20 μM), Tm (10 μg/ml) or both. Cells were pretreated with MG-132 for 1 hr and then further treated with Tm for 4 hrs. Ethidium bromide staining of the gel is shown at the bottom. (B) Inhibition of caspase-12 processing by proteasome inhibitors. Processing of full-length caspase-12 was examined by Western blotting in J558 myeloma cells treated with thapsigargin (1 μM) or PIs (20 μM) during the indicated time periods. (C) Alteration in the ratio of XBP-1 protein species in J558 cells were treated with increasing amounts of MG-132 for 16 hrs. Cells undergoing apoptosis were counted by Annexin V staining. (D) Time course of the XBP-1s to XBP-1u shift. Cells were treated with MG-132 (1 μM) for the indicated times and XBP-1u and spliced protein levels and cell death determined. (E) Alteration in the ratio of XBP-1 species in the MM.1s human myeloma line. Cells were treated with PS-341 (8 nM) in a time course analysis and XBP-1 protein species quantified.
Cells were lysed in RIPA buffer (50 mM Tris pH 7.4, 150 mM NaCl, 1 mM EDTA, 1% Triton X-100, 1% sodium deoxycholate, 0.1% SDS) and lysates subjected to SDS-PAGE and transferred to Hybond P membrane (Amersham-Pharmacia, Piscataway, N.J.). […] HeLa cells were cotransfected with XBP-1u and His-tagged ubiquitin expression plasmids (pMT 107, D. Bohmann, EMBL, Germany) by using the Lipofectamine-2000 reagent (Invitrogen, Carlsbad, Calif.). […] Degradation rates of XBP-1u and XBP-1s proteins were determined by pulse labeling J558 cells with ^35S Met/Cys for 1 hr and chasing for the indicated times.

spliced XBP-1 = assay: Inhibition of transactivation function of spliced XBP-1, luciferase in NIH 3T3 cells; assay type: cell-based; conditions: NIH 3T3, 200 ng spliced XBP-1, 200 ng mutant
Experimental: Versions of XBP-1 with various deletions of the C terminal transcription activating domain (e.g., consisting of the N terminal 225, 188, or 136 amino acids of the spliced form of XBP-1) that expressed high levels of protein by western analysis were created. The proteins were tested for their ability to inhibit the transactivation function of spliced XBP-1. Both the 188 and 136 N terminal mutants were extremely potent inhibitors (effective at a 1:1 ratio) of the spliced XBP-1. NIH 3T3 cells expressing XBP-1uc constructs were transfected with 200 ng of spliced XBP-1, yielding a relative luciferase activity of 44.5. 200 ng of XBP-N188 lowered the luciferase level to 1.8 and 200 ng of XBP-N136 lowered the luciferase activity to 2.2.

Row | Molecule | induction of ERdj4 (XBP-1-dependent UPR target gene) (UPR target genes) | genes whose expression increased, of the total pool of 12,000 genes (UPR target genes; wt MEF cells, Tm 6 hours) [%] | XBP-1u and XBP-1s protein induction (UPR target genes) | XBP-1s protein level, time course ([1]; J558, MG-132 1 μM) | onset of XBP-1u increase ([1]; J558, MG-132 1 μM) | time of XBP-1u peak ([1]; J558, MG-132 1 μM) [h] | XBP-1u accumulation and XBP-1s decrease ([1]; J558 cells, 16 hrs) | relative luciferase activity (spliced XBP-1)
1 | tunicamycin [Tm] | not induced at all | 2.8 | induced both XBP-1u and XBP-1s proteins |  |  |  |  | 
2 | CC(C)C[C@@H](C=O)NC(=O)[C@H](CC(C)C)NC(=O)[C@H](CC(C)C)NC(=O)OCc1ccccc1 [MG-132] (Cbz-Leu-Leu-Leu-aldehyde) | normal induction of ERdj4 |  | induced both XBP-1u and XBP-1s proteins | rapidly declined after 4 hours of treatment and was barely detectable by 16 hours | as early as one hour post treatment | 8 | striking accumulation of XBP-1 u and a concomitant decrease in XBP-1s proteins | 
3 | XBP-1s: vector encoding only the spliced form of murine XBP-1, a protein of 371 aa (protein) MVVVAAAPSAATAAPKVLLLSGQPASGGRALPLMVPGPRAAGSEASGTPQARKRQRLTHLSPEEKALRRKLKNRVAAQTARDRKKARMSELEQQVVDLEEENHKLQLENQLLREKTHGLVVENQELRTRLGMDTLDPDEVPEVEAKGSGVRLVAGSAESAAGAGPVVTSPEHLPMDSDTVASSDSESDILLGILDKLDPVMFFKCPSPESASLEELPEVYPEGPSSLPASLSLSVGTSSAKLEAINELIRFDHVYTKPLVLEIPSETESQTNVVVKIEEAPLSSSEEDHPEFIVSVKKEPLEDDFIPELGISNLLSSSHCLRPPSCLLDAHSDCGYEGSPSPFSDMSSPLGTDHSWEDTFANELFPQLISV |  |  |  |  |  |  |  | 44.5
